Measurements from US20250000874A1, “BACTERIAL METABOLITES AND THEIR USE IN REDUCING INFLAMMATION” (LOYOLA UNIVERSITY OF CHICAGO, priority 2023, published 2025).

What was measured:
NLRP3 inflammasome = test: JE on IL-1β production by THP-1 macrophages upon NLRP3 activation; type: cell-based, human
Description: FIG. 22. The Effect of JE on IL-1β Production by THP-1 Macrophages. THP-1 macrophages were pretreated with JE overnight at 37° C., 5% CO2. The next day, they were primed with LPS at 500 ng/ml for 4 hours then activated with 6.5 μM of nigericin for 30 minutes at 37 C, 5% CO2. Supernatants were collected and IL-1β production with ELISA. Data are presented as mean±SEM (n=6). *p<0.05. One of two experiments is shown.
FIG. 23. The Effect of JE on IL-1β Production by THP-1 Macrophages: JE was used as a pretreatment when THP-1 macrophages were pretreated with JE overnight at 37° C., 5% CO2. The next day, they were primed with LPS at 500 ng/ml for 4 hours, then activated with 5 mM of ATP for 30 minutes at 37° C., 5% CO2. In the case when JE was used as a treatment, cells were primed with 10 ng/ml of LPS for 4 hours, then JE was added overnight at 37° C., 5% CO2. The following day, macrophages were activated with 5 mM of ATP for an hour. Supernatants were collected and IL-1β production with ELISA. Data are presented as mean±SEM (n=6). **p<0.01. One of two experiments is shown.
We similarly tested THP-1 cells as described above. […] I collected the supernatant and measured IL-1β by ELISA. […]

BMDMs = test: JE on TNF-α and IL-6 secretion by BMDMs upon LPS and TLR agonists; type: cell-based, mouse
Description: (§1) FIG. 16. The Effect of JE on TNF-α Secretion by BMDMs in Response to Stimulation by Different Concentrations of LPS. BMDMs were isolated and cultured, as mentioned before. Macrophages were incubated overnight with JE at a concentration of 50 μM at 37° C., 5% CO2. The next day, they were stimulated with two-fold dilutions of LPS at a starting concentration of 5 ng/ml for 3 hours. Supernatants were collected, and TNF-α was measured using ELISA. Data are presented as mean±SEM (n=6). *p<0.05; **p<0.01; ***p<0.001. One of two experiments is shown.
as §1, with “17.” for “16.”, “IL-6” for “TNF-α”, “cultured” for “cultured,”, “described above.” for “mentioned before.”
FIG. 18. The Effect of JE on TNF-α Secretion by BMDMs in Response to Stimulation by TLR Agonists. BMDMs were isolated and cultured as described above. Macrophages were incubated overnight with JE at a concentration of 50 μM at 37° C., 5% CO2. The following day, they were stimulated with 1 μg/ml of FLG-ST, […] of ODN, 50 μg/ml of Poly: IC, 3 μg/ml of Imiquimod, 3 μg/ml and 1.5 μg/ml of PAM-3SCk, 1 μg/ml of FSL-1 for 3 hours. Supernatants were collected, and TNF-α was measured using ELISA. Data are presented as mean±SEM (n=6). *p<0.05; **p<0.01; ***p<0.001. One of three experiments is shown.
Murine macrophages, both RAW 264.7 macrophages and bone marrow-derived macrophages (BMDMs), were seeded and then pretreated overnight with the metabolite JE. The following day, the macrophages were stimulated with one of TLR agonists, including LPS, FLA-ST, ODN, Pam3SCK4, Poly: IC LMW, FSL, and Imiquimod for 3 hours, then the production of TNF-α, and IL-6 in the culture supernatants was measured by ELISA.
Therefore, I stimulated them with two-fold dilution of the concentration I used to stimulate RAW 264.7. […] On the other hand, JE could reduce IL-6 secretion by BMDMs at 5 ng/ml of LPS as depicted in FIG. 17.
Similar to treatment of RAW 264.7 macrophages with TLR agonists, I pretreated BMDMs with JE then stimulated them with FLG, ODN, PIC, Imiquimod, PAM-3SCK, and FSL-1. […] After 3 hours, Supernatants were collected, TNF-α and IL-6 were quantified by ELISA.

[1] = test system: human corneal epithelial cells (HCECs); test: JE on TLR5 agonist (flagellin)-induced IL-6 in HCECs; type: cell-based; settings: JE 50 μM overnight, flagellin 6 or 24 hours, ELISA
Description: FIG. 11. Probiotic bacteria metabolite JE inhibits TLR5 agonist-induced IL-6 in HCECs. HCECs were pretreated with 50 µM JE overnight and then stimulated with 0.1 μg/ml flagellin for the indicated time. The effect of TLR5 agonist (flagellin) on IL-6 secretion were measured in cell culture supernatants by ELISA. *, P<0.05.
To test if JE could be used as a therapeutic agent, we tested its effects on a dry eye disease model. Dry eye disease is characterized by inflammation in ocular surface. First, we tested if JE can inhibit production of pro-inflammatory cytokine IL-6 by corneal epithelial cells stimulated by TLR5 agonist flagellin. Thus, SV 40 immortalized human corneal epithelial cells (HCECs) were with JE at 50 μM overnight and they are subsequently exposed to TLR5 agonists (flagellin isolated from Pseudomonas aeruginosa) for 6 or 24 hours. The cell culture supernatants were collected and used for ELISA to determine the concentrations of IL-6. […] Probiotic bacteria-derived metabolite (JE) suppressed the TLR5 agonist-induced IL-6 production (FIG. 11).

SMILES: CC(=O)O[C@@H]1CC[C@H]2[C@H]3CC[C@H]4CC(F)(F)CC[C@]4(C)[C@H]3CC[C@]12C [JE, 3,3-Difluoro-5-alpha-androstan-17-beta-yl acetate]
- IL-1β production upon NLRP3 activation (NLRP3 inflammasome; JE added before priming with LPS (pretreatment overnight)): could decrease
- IL-1β production upon NLRP3 activation (NLRP3 inflammasome; JE after priming with LPS and before adding ATP): still detected robust production
- TNF-α secretion (BMDMs; JE 50 μM overnight, LPS 0.6 ng/ml 3 hours): Significant inhibition
- TNF-α secretion (BMDMs; JE 50 μM overnight, LPS 1.25 ng/ml 3 hours): Significant inhibition
- IL-6 secretion (BMDMs; JE 50 μM overnight, LPS 5 ng/ml 3 hours): could reduce
- TNF-α secretion upon stimulation with TLR agonists (BMDMs; JE 50 μM overnight, FLG, ODN, PIC, Imiquimod, PAM-3SCK, FSL-1, 3 hours): decreased
- IL-6 secretion upon stimulation with TLR agonists (BMDMs; JE 50 μM overnight, TLR agonists 3 hours): decreased
- IL-6 production (BMDMs; JE, LPS 10 ng/ml): failed to decrease
- TNF-α production (BMDMs; JE, LPS 10 ng/ml): failed to decrease
- TNF-α production (BMDMs; ODN and PAM-3SCK, previous experiment before two-fold dilutions): did not significantly reduce
- TLR5 agonist-induced IL-6 production [1]: suppressed
